The values below come from paper PMC2944077, “Placental Transfer of Conjugated Bisphenol A and Subsequent Reactivation in the Rat Fetus” (Environmental Health Perspectives, 2010).

Series [1] is described as follows: Uterine perfusion of pregnant rats with glucuronide substrate; distribution in maternal-placental-fetal unit. It counts as in vivo, rat. Conditions: for Amount of substrate (glucuronide) detected in perfusate (maternal side): 2 μM substrate 20 min (120 nmol total) then 70 min without substrate. An excerpt: Additional details of the surgical procedure are available in the Supplemental Material (doi:10.1289/ehp.0901575). In this perfusion system, the perfusate pumped into the abdominal aorta is circulated through one uterine artery– placenta–fetus–uterine vein unit and drips from the drain tube inserted in the caudal vein. After the perfusion, dams and fetuses were euthanized by incision of the caudal vena cava under anesthesia and tissues were collected.
We used modified Krebs-Ringer’s buffer (mKRB; 126 mM NaCl, 3 mM KCl, 1.2 mM KH2PO4, 1.3 mM MgSO4, 2.4 mM CaCl2, 10 mM glucose, 26 mM NaHCO3, 2.5% dextran from Leuconostoc mesenteroides, and 3% Dextran 70) as the perfusate. The perfusate was pumped at a constant rate of 3 mL/min. First, we perfused four animals in a preliminary group with 10 μM BPA-GA for 20 min to determine whether BPA-GA is transferred into the fetus across the placenta. In this group, we performed a preliminary perfusion with mKRB for 5 min to wash away blood, followed by 20 min inflow of mKRB containing 10 μM BPA-GA. After the perfusion, the fetus and amniotic fluid were collected.
To elucidate the kinetics of perfused BPA-GA, we used another group of four animals to compare the amount of BPA-GA in maternal veins with that in fetal tissue. After preliminary perfusion with mKRB for 5 min, pregnant rats were perfused with mKRB containing 2 μM BPA-GA for 20 min. Then, mKRB without BPA-GA was perfused for 70 min (a total of 90 min). From the beginning of the BPA-GA perfusion, the perfusate that drained from the caudal vena cava was collected from each animal at 5-min intervals for 90 min. At the end of perfusate collection, the fetus, amnion, amniotic fluid, uterus, and placenta were collected. We also performed a control study using 1-naphthol-glucuronide (1-NA-GA; Nacalai Tesque Inc., Kyoto, Japan) as the substrate. Four pregnant rats were used in each perfusion group. […]
Perfusates collected from the caudal vena cava were collected after uterine perfusion and prepared for HPLC and LC/TOF-MS analysis. Each perfusate sample was mixed with a 4-fold volume of acetonitrile and centrifuged at 13,000 rpm for 5 min at 4°C; each supernatant was then analyzed by HPLC.
To prepare tissues for HPLC and LC/TOF-MS analysis, we first added each sample to 0.3 mL methanol; the sample was homogenized and then sonicated for 5 min. The products were centrifuged at 13,000 rpm for 5 min at 4°C, and the supernatants were concentrated by solid-phase extraction using an Oasis HLB Plus cartridge (Waters Corp., Milford, MA, USA). The extracts were then analyzed by HPLC.
We used an HPLC system (Tosoh Corp., Tokyo, Japan) that consisted of a dual pump (DP-8020), a fluorescent photometer (FS-8020), and a column oven (CO-8020). Samples were separated at 40°C using a reverse-phase column (Unison UK-C18; Imtakt Corp., Kyoto, Japan) at a flow rate of 1.0 mL/min under a linear gradient of solution A (methanol/water = 24/76 vol/vol with 10 mM ammonium acetate) and solution B (methanol) for 20 min. BPA-GA was detected at excitation/emission of 275/308 nm and 1-NA-GA was detected at excitation/emission of 283/336 nm. The results were recorded using LC-8020 integration software (Tosoh Corp.); the elution peaks of BPA and BPA-GA were noted and the concentrations compared with the standards.
LC/TOF-MS was performed using the HPLC system described above and LCT premier XE (Waters Corp.). The flow rate of HPLC was 0.3 mL/min, and BPA-GA was monitored at m/z 403–404 by TOF-MS. In the present study, the limits of detection of BPA and BPA-GA in LC/TOF-MS were both 20 pmol/mL (data not shown).

Details of series [2]: method as in Matthews et al. 2001. As to conditions: ref Matthews et al. 2001; cited from earlier work.
The test system of the next series is fetal liver cells. Briefly: Incubation of fetal primary cell cultures with BPA-GA (deconjugation). It counts as in vitro ADME, rat. Conditions: 25 μM BPA-GA, 37°C, 10-120 min, GD18.5. The procedure:
(§1) Fetal liver and heart tissues, collected on GD18.5, were washed twice with cold phosphate-buffered saline (PBS). Tissues for two fetuses were combined in one tube and then minced in cold PBS and centrifuged for 5 min at 100 × g at 4°C. After removing the supernatant, the pellets were resuspended in 5 mL William’s medium (Sigma-Aldrich, Inc., St. Louis, MO, USA) containing collagenase (350 U; Wako Pure Chemical Industries, Ltd., Osaka, Japan) and DNase I (375 U; Roche Diagnostics, Basel, Switzerland) and incubated for 30 min at 37°C. After the incubation, samples were centrifuged for 5 min at 100 × g at 4°C, and the supernatants were removed. The remaining cells, which had been isolated from two fetuses, were resuspended in 200 μL William’s medium with or without 25 μM BPA-GA and incubated at 37°C for 10, 30, 60, or 120 min. At each time point, cells and medium were pooled and extracts were prepared for HPLC as described above, by adding the same volume of methanol. All experiments were repeated five times. Values express the mean ± SE.

The next series relates to fetal heart cells. The description is as above. It counts as in vitro ADME, rat. As to conditions: 25 μM BPA-GA, 37°C, 10-120 min, GD18.5. The procedure: as §1
Series [3] concerns placental trophoblast primary cell culture. Briefly: Deconjugation of BPA-GA in placental trophoblast primary cell culture. It counts as in vitro ADME, rat. As to conditions: data not shown. The protocol: After co-incubation with BPA-GA, we detected deconjugated BPA in fetal liver and to a small degree in fetal heart (Figure 6A). We observed β-Gase expression in both tissues (Figure 6B). […] The difference in deconjugation rates among tissues in the present study may reflect uptake into cells via transporters rather than through β-Gase expression. Another possibility is that BPA-GA is deconjugated in the placenta and then resultant BPA is transferred into the fetus by passive diffusion. Therefore, we also examined deconjugation of BPA-GA in placental trophoblast primary cell culture. […] The possibility of transfer of placental deconjugated BPA could not be excluded completely in this experiment. Further work is required to examine the tissue-specific deconjugation of BPA-GA and the possibility of BPA transfer.

The conditions of series [4]: oral 10 mg/kg BPA to GD16.0 rat mothers; ref Domoradzki et al. (2003); cited from earlier work.
In series [5] the test system is UGT. Briefly: UGT enzyme analysis using hepatic microsomes. It counts as in vitro ADME, rat. An excerpt: We examined UGT enzymatic activity using hepatic microsomes. We prepared the microsomes from rat liver and performed UGT enzyme analysis as described previously by [Daidoji et al (2006)]. See the Supplemental Material (doi:10.1289/ehp.0901575) for details.
Figure 6 Metabolism of BPA-GA in the fetus. Abbreviations: H, fetal heart; L, fetal liver; ML, maternal liver; P, placenta. (A) Time course showing concentration of deconjugated BPA (mean ± SE) in the extract of cultured fetal liver and heart cells (see “Materials and Methods” for details; n = 5). (B) Expression of β-Gase in the fetal liver and heart on GD18.5 by RT-PCR. (C) Expression of UGT isoforms in ML, P, L, and […] determined by RT-PCR. […] Values shown are the concentration (mean ± SE) of glucuronide conjugates in microsome protein (nmol/μg) after 30-min reaction time (n = 5).

On the set-up of series [6]: method as in Krishnan et al. 1993; Nagel et al. 1997. Conditions: in vivo and in vitro; ref Krishnan et al. 1993; Nagel et al. 1997; cited from earlier work.
Another series concerns CD-1 mice. On the set-up: method as in Timms et al. 2005. Conditions: 10 μg/kg BPA/day; ref Timms et al. 2005; cited from earlier work.
Series [7] relates to UGT. Conditions: GD19.0; ref Matsumoto et al. 2002; cited from earlier work.
The mark [8] stands for this setting: 2 μM substrate 20 min then 70 min without substrate, GD18.5, mean ± SD, n = 4.

SMILES strings stand for the structures.

`O=C(O)[C@H]1O[C@@H](Oc2cccc3ccccc23)[C@H](O)[C@@H](O)[C@@H]1O` [1-NA-GA, 1-naphthol-glucuronide, reference compound]: the “Amount of substrate (glucuronide) detected in perfusate (maternal side)” value in [1] (GD18.5, mean ± SD, n = 4) was 111.77 ± 2.58 nmol.
In the case of `CC(C)(c1ccc(O)cc1)c1ccc(O[C@@H]2O[C@H](C(=O)O)[C@@H](O)[C@H](O)[C@H]2O)cc1` [BPA-GA, BPA-glucuronide], in series [2], the “Biological activity of metabolite” value was “biologically inactive”. Also, the “Share of the total amount of BPA-GA detected in the fetus” value in series [1] (2 μM BPA-GA 20 min, total perfusion 90 min) is on record as “about 0.09%”. Further, the “BPA-GA in the collected perfusate after 70 min” value in [1] (2 μM BPA-GA 20 min then perfusion without BPA-GA, n = 4) is given as “barely detected”. Also, the “Amount of substrate (glucuronide) detected in perfusate (maternal side)” value in [1] (GD18.5, mean ± SD, n = 4) turned out to be 113.10 ± 6.92 nmol. Also, in series [1] (setting [8]), the “Amount of deconjugated substrate (BPA or 1NA) detected in amniotic fluid” value stood at 31.35 ± 4.52 pmol, the “Amount of deconjugated substrate (BPA or 1NA) detected in fetus” value turned out to be 6.45 ± 1.45 pmol and the “Amount of substrate (glucuronide) detected in fetus” value worked out at 109.26 ± 36.75 pmol. The “Deconjugated BPA in the fetus and amniotic fluid after preliminary perfusion” value in series [1] (10 μM BPA-GA, 20-min inflow, HPLC) is reported as “detected”. The “BPA-GA in the fetus and amniotic fluid after preliminary perfusion” value in series [1] (10 μM BPA-GA, 20-min inflow, HPLC, confirmed by LC/TOF-MS) is reported as “detected”. Besides, the “Deconjugation of BPA-GA to BPA in fetal liver cells” value in the series with fetal liver cells was “in a time-dependent manner”. Besides, the “Deconjugation of BPA-GA to BPA in fetal heart cells” value in the series with fetal heart cells is on record as “to a much smaller degree”. The “Deconjugation of BPA-GA in trophoblast cells” value in series [3] is recorded as “did not observe deconjugation”.
As for `CC(C)(c1ccc(O)cc1)c1ccc(O)cc1` [BPA, Bisphenol A], the “Concentration of BPA-GA in the fetus compared with that in maternal plasma” value in series [4] is recorded as “approximately 0.1%”. In the series on UGT [5] (late pregnancy, in theory, from 20% of maternal and 70% pregnant/nonpregnant), the “Fetal UGT activity toward BPA relative to nonpregnant adult rats” value was less than 15%. The “UGT activities in fetal liver microsomes compared with those in the mother” value in the series with UGT [5] (liver microsomes, GD18.5) is reported as “quite low”. Besides, in the series with UGT [5] (liver microsomes, GD18.5, 30-min reaction), the “Fetal UGT activity toward substrate relative to maternal microsomes” value was “about 20%”. Besides, the Estrogenic activity entry in [6] is listed as “weak estrogenic activity”. Moreover, in the series with CD-1 mice, the “Effect of maternal exposure on prostate and urethra in male fetuses” value is “induces abnormal development of the prostate and urethra”. Moreover, in the series with UGT [7], the “UGT activity toward BPA in pregnant rats relative to nonpregnant adult rats” value is reported as “about 70%”.
